Test results taken from paper doi:10.64898/2025.12.03.692196v2, “Dimerization and Threonine-Dependent Stabilization Govern Human YRDC Catalysis” (biorxiv, 2026).
Changes are numbered by the printed parent chain. One block for each molecule: values may come before it.

What was measured:
Assay in all cases: biochemical
Set-up in all cases: SYPRO Orange DSF; apparent Kd from Tm versus ligand concentration
[1] = molecular target: T1, YRDCWT (human YRDC, ΔN43) (Homo sapiens, UniProt Q86U90); conditions: With ATP; DSF apparent KD
T1 construct: lacks first 43 residues (N-terminal truncation); N-terminal His6 tag removed with TEV; E. coli BL21(DE3); homodimer
T1 sequence (Q86U90 with tags, fused parts or gaps DEL265-265): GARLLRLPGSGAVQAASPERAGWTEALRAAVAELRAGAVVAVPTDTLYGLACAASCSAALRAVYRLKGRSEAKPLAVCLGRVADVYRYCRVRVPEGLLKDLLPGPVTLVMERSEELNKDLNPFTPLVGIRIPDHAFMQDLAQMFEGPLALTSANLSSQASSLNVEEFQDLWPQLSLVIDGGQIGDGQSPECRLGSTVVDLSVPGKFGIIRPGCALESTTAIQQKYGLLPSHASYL
Method: (§1) Reactions were prepared in a MicroAmp™ 96-well optical reaction plate (Fisher Scientific) with a final volume of 20 μL per well, in assay buffer (50 mM Tricine pH 8.5, 10 mM MgCl₂) with 8 μM YRDC, and 5X SYPRO Orange dye (Invitrogen). The concentrations of substrates, including ATP, L-threonine, and NaHCO3, were varied based on the reaction type. In most cases wild-type YRDC and its mutants were assessed under various conditions, including enzyme alone, enzyme with ATP concentrations ranging from 10 µM to 500 µM, enzyme with L-threonine concentrations between 0.5 mM and 50 mM, either in the presence or absence of 500 µM ATP, and enzyme with NaHCO3 concentrations from 10 mM to 500 mM in the presence of both 500 µM ATP and 25 mM L-threonine. Fluorescence emission was recorded using Applied Biosystems® QuantStudio 1 Real-Time PCR system (λex = 520 nm, λem = 558 nm). Temperature increases were performed over the range of 25–95 °C, with increments of 1 °C/min, while changes in fluorescence intensity were continuously measured. Each experiment was conducted in triplicate, and the data are presented as the mean ± standard deviation. Control reactions, prepared without the enzyme, were used to account for background fluorescence and were subtracted from experimental measurements. Melting curves were fitted using a Boltzmann sigmoidal model, and thermal stability (Tₘ) values were determined from the inflection point of the curve. The dissociation constant (KD) of the enzyme with each substrate is calculated based on the DSF single binding equation[45]: [drawing 1] Where Tm,0 and Tm,∞refer to the melting temperature (Tm) in °C at zero and infinite ligand concentrations, respectively, P represents the protein concentration and Kd,app is the apparent dissociation constant obtained from ligand-dependent thermal stabilisation.

[2] = molecular target: T2, YRDCWT (human YRDC, ΔN43) (Homo sapiens, UniProt Q86U90); conditions: DSF apparent KD
T2 construct: lacks first 43 residues (N-terminal truncation); N-terminal His6 tag removed with TEV; E. coli BL21(DE3); homodimer
T2 sequence (Q86U90 44-279 C121A): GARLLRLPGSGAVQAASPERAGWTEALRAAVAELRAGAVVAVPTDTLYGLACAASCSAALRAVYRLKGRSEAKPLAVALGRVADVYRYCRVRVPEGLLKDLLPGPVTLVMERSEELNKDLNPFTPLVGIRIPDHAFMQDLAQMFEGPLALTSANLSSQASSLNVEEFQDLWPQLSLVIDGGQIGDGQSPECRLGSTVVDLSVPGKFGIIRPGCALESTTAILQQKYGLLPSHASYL
Method: as §1

[3] = molecular target: T3, YRDCWT (human YRDC, ΔN43) (Homo sapiens, UniProt Q86U90, I221T); conditions: DSF apparent KD
T3 construct: lacks first 43 residues (N-terminal truncation); N-terminal His6 tag removed with TEV; E. coli BL21(DE3); homodimer
T3 sequence (Q86U90 44-279 I221T): T2 sequence (Q86U90 44-279 C121A) with A78C, I178T
Method: as §1

[4] = molecular target: T4, YRDCWT (human YRDC, ΔN43) (Homo sapiens, UniProt Q86U90, R253K); conditions: With L-threonine; DSF apparent KD
T4 construct: lacks first 43 residues (N-terminal truncation); N-terminal His6 tag removed with TEV; E. coli BL21(DE3); homodimer
T4 sequence (Q86U90 44-279 R253K): T2 sequence (Q86U90 44-279 C121A) with A78C, R210K
Method: as §1

YRDCS195A = molecular target: T5, YRDCS195A (Homo sapiens, UniProt Q86U90, S238A); conditions: With L-threonine; DSF apparent KD
T5 construct: gene YRDC; lacks N-terminal 43 residues; printed numbering S195A is of the truncated protein
T5 sequence (Q86U90 1-279 S238A): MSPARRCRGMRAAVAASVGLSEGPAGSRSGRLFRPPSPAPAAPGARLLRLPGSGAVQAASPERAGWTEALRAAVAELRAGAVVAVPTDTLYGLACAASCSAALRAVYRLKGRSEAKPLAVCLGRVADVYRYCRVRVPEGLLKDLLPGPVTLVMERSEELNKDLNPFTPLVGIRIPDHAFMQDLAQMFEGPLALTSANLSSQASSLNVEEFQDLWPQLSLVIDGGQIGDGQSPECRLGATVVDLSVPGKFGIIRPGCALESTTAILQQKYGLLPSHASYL
Method: as §1

[5] = molecular target: T6, YRDCWT (human YRDC, ΔN43) (Homo sapiens, UniProt Q86U90, C121A); conditions: With L-threonine; DSF apparent KD
T6 construct: lacks first 43 residues (N-terminal truncation); N-terminal His6 tag removed with TEV; E. coli BL21(DE3); homodimer
T6 sequence (Q86U90 44-279 C121A): T2 sequence (Q86U90 44-279 C121A)
Method: as §1

(human YRDC, ΔN43) = molecular target: T7, (human YRDC, ΔN43) (Homo sapiens, UniProt Q86U90, A84V); conditions: With ATP and L-threonine; DSF apparent KD
T7 construct: lacks first 43 residues (N-terminal truncation); N-terminal His6 tag removed with TEV; E. coli BL21(DE3); homodimer
T7 sequence (Q86U90 44-279 A84V): T2 sequence (Q86U90 44-279 C121A) with A41V, A78C
Method: as §1

Kd [1]: 2100 ± 700 µM | Kd ([2]; With ATP): 1200 ± 300 µM | Kd ([3]; With ATP): 400 ± 100 µM
Structure (SMILES): C[C@@H](O)[C@H](N)C(=O)O [L-threonine]

Kd [4]: 148 ± 112 µM | Kd (YRDCS195A): 48.9 ± 37.8 µM | Kd [5]: 133 ± 29.7 µM
Structure (SMILES): Nc1ncnc2c1ncn2[C@@H]1O[C@H](COP(=O)(O)OP(=O)(O)OP(=O)(O)O)[C@@H](O)[C@H]1O [ATP]

Kd ([2]; With ATP and L-threonine): 3700 ± 2000 µM | Kd ((human YRDC, ΔN43)): 6500 ± 2000 µM | Kd ([3]; With ATP and L-threonine): 8300 ± 4200 µM
Structure (SMILES): O=C(O)O [bicarbonate]
